The structures appear in SMILES notation. Some results are limits rather than exact numbers.

The subject of one experiment is recombinant NL4-3 virus (Renilla luciferase in nef, Gag P373S). The experiment can be described thus: HIV Cell Culture Assay (luciferase reporter virus in MT-2 cells). The format is cell-based. The settings on record: NL43. In short, it runs like this:
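Read-out is Renilla luciferase, measured immediately after adding a premixed lysis/Dual Luciferase reagent. The reporter virus, NL4-3 with luciferase replacing part of nef plus Gag P373S, infected MT-2 cells for 4–5 days under serially diluted inhibitor.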
Background: In a reporter assay the amount or activity of a reporter protein is the signal.
Consider `CC(C)[C@@H]1CC[C@]2(C(=O)NCC[N+](C)(C)[O-])CC[C@]3(C)[C@H](CC[C@@H]4[C@@]5(C)CC=C(c6ccc(C(=O)O)cc6)C(C)(C)[C@@H]5CC[C@]43C)[C@@H]12` [Example 97, 2-((1S,3aS,5aR,5bR,7aR,11aS,11bR,13aR,13bR)-9-(4-carboxyphenyl)-1-isopropyl-5a,5b,8,8,11a-pentamethyl-2,3,3a,4,5,5a,5b,6,7,7a,8,11,11a,11b,12,13,13a,13b-octadecahydro-1H-cyclopenta[a]chrysene-3a-carboxamido)-N,N-dimethylethanamine oxide], for which the EC50 was 2.6 nM.

Take `C=C(C)[C@@H]1CC[C@]2(C(=O)Nc3ccc(OC)cc3)CC[C@]3(C)[C@H](CC[C@@H]4[C@@]5(C)CC=C(c6ccc(C(=O)O)cc6)C(C)(C)[C@@H]5CC[C@]43C)[C@@H]12` [Example 14, 4-((1R,3aS,5aR,5bR,7aR,11aS,11bR,13aR,13bR)-3a-(4-methoxyphenylcarbamoyl)-5a,5b,8,8,11a-pentamethyl-1-(prop-1-en-2-yl)-2,3,3a,4,5,5a,5b,6,7,7a,8,11,11a,11b,12,13,13a,13b-octadecahydro-1H-cyclopenta[a]chrysen-9-yl)benzoic acid]: the EC50 came to 110 nM.

The experiment is the same for the next values; noted with them: NL43, read-out: EC50 Group.
As to `C=C(C)[C@@H]1CC[C@]2(C(=O)NCCCn3ccnc3)CC[C@]3(C)[C@H](CC[C@@H]4[C@@]5(C)CC=C(c6ccc(C(=O)O)cc6)C(C)(C)[C@@H]5CC[C@]43C)[C@@H]12` [Example 86, 4-((1R,3aS,5aR,5bR,7aR,11aS,11bR,13aR,13bR)-3a-(3-(1H-imidazol-1-yl)propylcarbamoyl)-5a,5b,8,8,11a-pentamethyl-1-(prop-1-en-2-yl)-2,3,3a,4,5,5a,5b,6,7,7a,8,11,11a,11b,12,13,13a,13b-octadecahydro-1H-cyclopenta[a]chrysen-9-yl)benzoic acid], the 50% effective concentration (EC50) is under 100 nM.

In the case of `CC(C)[C@@H]1CC[C@]2(C(=O)NCCN(C)C)CC[C@]3(C)[C@H](CC[C@@H]4[C@@]5(C)CC[C@H](c6ccc(C(=O)O)cc6)C(C)(C)[C@@H]5CC[C@]43C)[C@@H]12` [Example 55, 4-((1S,3aS,5aR,5bR,7aS,9S,11aS,11bR,13aR,13bR)-3a-(2-(dimethylamino)ethylcarbamoyl)-1-isopropyl-5a,5b,8,8,11a-pentamethylicosahydro-1H-cyclopenta[a]chrysen-9-yl)benzoic acid], the EC50 is under 100 nM.

For `C=C(C)[C@@H]1CC[C@]2(C(=O)NCCN(CCC(=O)O)CCC(=O)O)CC[C@]3(C)[C@H](CC[C@@H]4[C@@]5(C)CC=C(c6ccc(C(=O)O)cc6)C(C)(C)[C@@H]5CC[C@]43C)[C@@H]12` [Example 90, 3,3′-(2-((1R,3aS,5aR,5bR,7aR,11aS,11bR,13aR,13bR)-9-(4-carboxyphenyl)-5a,5b,8,8,11a-pentamethyl-1-(prop-1-en-2-yl)-2,3,3a,4,5,5a,5b,6,7,7a,8,11,11a,11b,12,13,13a,13b-octadecahydro-1H-cyclopenta[a]chrysene-3a-carboxamido)ethylazanediyl)dipropanoic acid], the 50% effective concentration (EC50) is over 100 nM.

Regarding `C=C(C)[C@@H]1CC[C@]2(C(=O)NCCCN(CC)CCCC(=O)O)CC[C@]3(C)[C@H](CC[C@@H]4[C@@]5(C)CC=C(c6ccc(C(=O)O)cc6)C(C)(C)[C@@H]5CC[C@]43C)[C@@H]12` [Example 101, 4-((1R,3aS,5aR,5bR,7aR,11aS,11bR,13aR,13bR)-3a-(3-((3-carboxypropyl)(ethyl)amino)propylcarbamoyl)-5a,5b,8,8,11a-pentamethyl-1-(prop-1-en-2-yl)-2,3,3a,4,5,5a,5b,6,7,7a,8,11,11a,11b,12,13,13a,13b-octadecahydro-1H-cyclopenta[a]chrysen-9-yl)benzoic acid], the EC50 was under 100 nM.

Take `CC(C)[C@@H]1CC[C@]2(C(=O)NCCN(C)C)CC[C@]3(C)[C@H](CC[C@@H]4[C@@]5(C)CC=C(c6ccc(C(=O)O)cc6)C(C)(C)[C@@H]5CC[C@]43C)[C@@H]12` [Example 78, 4-((1S,3aS,5aR,5bR,7aR,11aS,11bR,13aR,13bR)-3a-(2-(dimethylamino)ethylcarbamoyl)-1-isopropyl-5a,5b,8,8,11a-pentamethyl-2,3,3a,4,5,5a,5b,6,7,7a,8,11,11a,11b,12,13,13a,13b-octadecahydro-1H-cyclopenta[a]chrysen-9-yl)benzoic acid]: the concentration for a half-maximal effect (EC50) is under 100 nM.

`C=C(C)[C@@H]1CC[C@]2(C(=O)NCCCN3CCS(=O)(=O)CC3)CC[C@]3(C)[C@H](CC[C@@H]4[C@@]5(C)CC=C(c6cc(F)c(C(=O)O)c(F)c6)C(C)(C)[C@@H]5CC[C@]43C)[C@@H]12` [Example 123, 4-((1R,3aS,5aR,5bR,7aR,11aS,11bR,13aR,13bR)-3a-((3-(1,1-dioxido-4-thiomorpholinyl)propyl)carbamoyl)-1-isopropenyl-5a,5b,8,8,11a-pentamethyl-2,3,3a,4,5,5a,5b,6,7,7a,8,11,11a,11b,12,13,13a,13b-octadecahydro-1H-cyclopenta[a]chrysen-9-yl)-2,6-difluorobenzoic acid]: the EC50 was under 100 nM.

Take `C=C(C)[C@@H]1CC[C@]2(C(=O)NCC(c3cccnc3)N(C)C)CC[C@]3(C)[C@H](CC[C@@H]4[C@@]5(C)CC=C(c6ccc(C(=O)O)cc6)C(C)(C)[C@@H]5CC[C@]43C)[C@@H]12` (stereo partly drawn) [Example 35, 4-((1R,3aS,5aR,5bR,7aR,11aS,11bR,13aR,13bR)-3a-(2-(dimethylamino)-2-(pyridin-3-yl)ethylcarbamoyl)-5a,5b,8,8,11a-pentamethyl-1-(prop-1-en-2-yl)-2,3,3a,4,5,5a,5b,6,7,7a,8,11,11a,11b,12,13,13a,13b-octadecahydro-1H-cyclopenta[a]chrysen-9-yl)benzoic acid]: the half-maximal effective concentration (EC50) was under 100 nM.

Regarding `C=C(C)[C@@H]1CC[C@]2(C(=O)N3CCC(O)CC3)CC[C@]3(C)[C@H](CC[C@@H]4[C@@]5(C)CC=C(c6ccc(C(=O)OC)cc6)C(C)(C)[C@@H]5CC[C@]43C)[C@@H]12` [Example 21, methyl 4-((1R,3aS,5aR,5bR,7aR,11aS,11bR,13aR,13bR)-3a-(4-hydroxypiperidine-1-carbonyl)-5a,5b,8,8,11a-pentamethyl-1-(prop-1-en-2-yl)-2,3,3a,4,5,5a,5b,6,7,7a,8,11,11a,11b,12,13,13a,13b-octadecahydro-1H-cyclopenta[a]chrysen-9-yl)benzoate], the EC50 is over 100 nM.

Regarding `C=CNC(=O)[C@]12CC[C@@H](C(=C)C)[C@@H]1[C@H]1CC[C@@H]3[C@@]4(C)CC=C(c5ccc(C(=O)O)cc5)C(C)(C)[C@@H]4CC[C@@]3(C)[C@]1(C)CC2` [Example 84, 4-((1R,3aS,5aR,5bR,7aR,11aS,11bR,13aR,13bR)-5a,5b,8,8,11a-pentamethyl-1-(prop-1-en-2-yl)-3a-(vinylcarbamoyl)-2,3,3a,4,5,5a,5b,6,7,7a,8,11,11a,11b,12,13,13a,13b-octadecahydro-1H-cyclopenta[a]chrysen-9-yl)benzoic acid], the EC50 is under 100 nM.

Take `C=C(C)[C@@H]1CC[C@]2(C(=O)NCCN3CCCC3=O)CC[C@]3(C)[C@H](CC[C@@H]4[C@@]5(C)CC=C(c6ccc(C(=O)O)cc6)C(C)(C)[C@@H]5CC[C@]43C)[C@@H]12` [Example 46, 4-((1R,3aS,5aR,5bR,7aR,11aS,11bR,13aR,13bR)-5a,5b,8,8,11a-pentamethyl-3a-(2-(2-oxopyrrolidin-1-yl)ethylcarbamoyl)-1-(prop-1-en-2-yl)-2,3,3a,4,5,5a,5b,6,7,7a,8,11,11a,11b,12,13,13a,13b-octadecahydro-1H-cyclopenta[a]chrysen-9-yl)benzoic acid]: the EC50 was under 100 nM.

Turning to `C=C(C)[C@@H]1CC[C@]2(C(=O)NCC(O)CO)CC[C@]3(C)[C@H](CC[C@@H]4[C@@]5(C)CC=C(c6ccc(C(=O)O)cc6)C(C)(C)[C@@H]5CC[C@]43C)[C@@H]12` (stereo partly drawn) [Example 71, 4-((1R,3aS,5aR,5bR,7aR,11aS,11bR,13aR,13bR)-3a-(2,3-dihydroxypropylcarbamoyl)-5a,5b,8,8,11a-pentamethyl-1-(prop-1-en-2-yl)-2,3,3a,4,5,5a,5b,6,7,7a,8,11,11a,11b,12,13,13a,13b-octadecahydro-1H-cyclopenta[a]chrysen-9-yl)benzoic acid], the half-maximal effective concentration (EC50) is under 100 nM.

In the case of `C=C(C)[C@@H]1CC[C@]2(C(=O)NCCN(CC(=O)O)c3ccccc3)CC[C@]3(C)[C@H](CC[C@@H]4[C@@]5(C)CC=C(c6ccc(C(=O)O)cc6)C(C)(C)[C@@H]5CC[C@]43C)[C@@H]12` [Example 111, 4-((1R,3aS,5aR,5bR,7aR,11aS,11bR,13aR,13bR)-3a-(2-((carboxymethyl)(phenyl)amino)ethylcarbamoyl)-5a,5b,8,8,11a-pentamethyl-1-(prop-1-en-2-yl)-2,3,3a,4,5,5a,5b,6,7,7a,8,11,11a,11b,12,13,13a,13b-octadecahydro-1H-cyclopenta[a]chrysen-9-yl)benzoic acid], the EC50 was under 100 nM.

Turning to `C=C(C)[C@@H]1CC[C@]2(C(=O)NCc3ccc(OC)cc3)CC[C@]3(C)[C@H](CC[C@@H]4[C@@]5(C)CC=C(c6ccc(C(=O)O)cc6)C(C)(C)[C@@H]5CC[C@]43C)[C@@H]12` [Example 15, 4-((1R,3aS,5aR,5bR,7aR,11aS,11bR,13aR,13bR)-3a-(4-methoxybenzylcarbamoyl)-5a,5b,8,8,11a-pentamethyl-1-(prop-1-en-2-yl)-2,3,3a,4,5,5a,5b,6,7,7a,8,11,11a,11b,12,13,13a,13b-octadecahydro-1H-cyclopenta[a]chrysen-9-yl)benzoic acid], the EC50 is under 100 nM.

`C=C(C)[C@@H]1CC[C@]2(C(=O)N[C@@H](CN(C)C)C(=O)O)CC[C@]3(C)[C@H](CC[C@@H]4[C@@]5(C)CC=C(c6ccc(C(=O)O)cc6)C(C)(C)[C@@H]5CC[C@]43C)[C@@H]12` [Example 65, 4-((1R,3aS,5aR,5bR,7aR,11aS,11bR,13aR,13bR)-3a-((S)-1-carboxy-2-(dimethylamino)ethylcarbamoyl)-5a,5b,8,8,11a-pentamethyl-1-(prop-1-en-2-yl)-2,3,3a,4,5,5a,5b,6,7,7a,8,11,11a,11b,12,13,13a,13b-octadecahydro-1H-cyclopenta[a]chrysen-9-yl)benzoic acid]: the EC50 was under 100 nM.

As usually defined, the EC50 is the concentration giving half of the maximal effect.
